We go through one compound from article PMC10119279 (Scientific Reports, 2023).

Read-outs that look alike come from different tables or passages of the source.

On the set-up of data set [1]: method as in PMID 30449006. As to conditions: ref 10; cited from earlier work.
The next data set has as its target T1, CN1 enzyme (Homo sapiens, UniProt Q96KN2).
T1 construct: Fasted venous heparin plasma was collected from 6 subjects (5 males and 1 female) with a wide range in CN1 enzyme activity; from tissue; host or cells: human venous heparin plasma from 6 volunteers
T1 sequence (Q96KN2 26-507): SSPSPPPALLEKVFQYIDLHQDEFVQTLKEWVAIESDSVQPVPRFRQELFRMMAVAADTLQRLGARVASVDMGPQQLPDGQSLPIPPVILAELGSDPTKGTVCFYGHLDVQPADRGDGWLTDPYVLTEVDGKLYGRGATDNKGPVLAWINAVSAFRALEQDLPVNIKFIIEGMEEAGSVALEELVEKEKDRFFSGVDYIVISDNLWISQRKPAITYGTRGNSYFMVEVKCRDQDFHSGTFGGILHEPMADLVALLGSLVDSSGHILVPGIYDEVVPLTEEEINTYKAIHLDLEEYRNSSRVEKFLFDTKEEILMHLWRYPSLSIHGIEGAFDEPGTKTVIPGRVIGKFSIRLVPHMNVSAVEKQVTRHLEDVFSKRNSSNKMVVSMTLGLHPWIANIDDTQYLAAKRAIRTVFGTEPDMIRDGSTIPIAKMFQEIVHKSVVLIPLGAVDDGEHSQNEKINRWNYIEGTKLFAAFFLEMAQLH
The experiment in a line: In vitro degradation of carnosine, anserine and balenine added to human heparin plasma. The class given is in vitro ADME. As to conditions: for half-life at 20 µM: human, heparin plasma. The protocol:
Fasted venous heparin plasma was collected from 6 subjects (5 males and 1 female) with a wide range in CN1 enzyme activity (0.32–2.92 µmol/mL/h with a mean value of 1.62 µmol/mL/h). Subjects were asked to refrain from alcohol, meat and fish the day before the sampling. […] On different time points (Table 1), plasma was deproteinized with 1:11 sulfosalicylic acid (SSA, 35% solution) to inhibit further hydrolysis. Samples were centrifuged for 5 min at 16,000 g and supernatant was stored at − 20 °C until further UHPLC-MS/MS analysis.
Extraction of plasma and urine for UHPLC-MS/MS analysis went as follows: 150 µL of deproteinized plasma/urine (not deproteinized) was added to 215 µL of acetonitrile containing 1% formic acid, 10 µL of internal standard (IS) (carnosine-D4) and 25 µL ultrapure water or standard (calibration curve and quality control samples (QC)). Then samples were vortexed and centrifuged (15 min, 4 °C, 15,000 g). Supernatant was used for further analyses.
In the in vitro study, supernatant was diluted 40 times before injection. In the PK study, plasma samples from the 10 mg/kg condition and baseline urine samples were diluted 100 times. All other urine samples were diluted 1000 times. Dilutions were conducted with acetonitrile containing 1% formic acid.
Analyses were performed on a UHPLC-MS/MS platform consisting of an Acquity H-Class Quaternary Solvent Manager and Flow-Through-Needle Sample Manager with temperature controlled tray (8 °C) and column oven (60 °C). Chromatographic separation was achieved on an Acquity UPLC BEH amide column (2.1 mm × 100 mm, 1.7 µm) with an Acquity amide Vanguard pre-column. The system operated at a flow rate of 0.3 mL/min with solvent A (ultrapure water), solvent B (acetonitrile) and solvent C (200 mM ammonium formate with 0.04% ammonia) with the gradient shown in Table 2. The UPLC column effluent was interfaced to a Xevo TQ-XS® MS/MS system (plasma samples) and Xevo TQ-S® (urine samples), equipped with an electrospray ionization (ESI) probe operating in positive ion mode. Further MS settings included desolvation gas flow rate (15 L/h), desolvation temperature (600 °C), cone gas flow rate (800 L/h), source temperature (150 °C) and capillary voltage (0.75 kV). Transition details are depicted in Table 3. […] The detector operated in multiple reacting monitoring mode, scanning the two most intense transitions of the HCDs. Masslynx software 4.2 was used for instrument control and data extraction. Hardware and software were purchased from Waters (Milford, MA, USA).
CN1 activity was quantified by fluorometric determination of histidine following carnosine addition (based on Teufel et al., 2003). The reaction was initiated by adding carnosine to the serum (final concentration of 3.33 mM carnosine) and stopped after 10 min incubation at 37 °C by adding trichloroacetic acid (final concentration of 150 mM TCA). For controls, trichloroacetic acid was added before carnosine. After centrifugation (15 min, 16000 g), 10 µl supernatant was added to 190 µl of an OPA-NaOH mixture (4000 µl incomplete ophtaldehyde, with 0.2% 2-mercaptoethanol, and 15 ml of 4 M sodium hydroxide solution) and fluorescence was determined after 40 min (excitation: 360 nm and emission: 465 nm). All chemicals were purchased from Sigma-Aldrich (Milan, Italy).
HCD concentration in the in vitro experiment was calculated relative to the starting concentration. Elimination constant (ke) and elimination half-life were calculated based on a monophasic decay profile. Incremental area under the plasma concentration time curve (iAUC) was calculated using the trapezoidal method in the PK study. A normality check was performed using Shapiro-Wilk’s test. In case of normally distributed data, a mixed-effects model and Pearson correlation was used. Skewed data were analysed with Friedman tests and Spearman rank correlations. Values are presented as mean/median ± standard deviation/inter quartile range and 95% confidence intervals (95% CI). […]

The conditions of data set [2]: compared to carnosine and anserine; cited from earlier work.

As usually defined, the half-life is the time needed for the level to fall by half in the phase considered. Take `Cn1cnc(CC(NC(=O)CCN)C(=O)O)c1` [balenine, β-alanyl-N(τ)-methyl-L-histidine]: the “Duration of zero-order input (dT1)” value (1 and 4 mg/kg doses, shorter for 10 mg/kg) stood at 1.13 h. Besides, the “Absorption constant (ka)” value (first-order absorption, fixed to last estimated value) was 3.48 h⁻¹. Besides, the “Fraction excreted in urine (pu)” value (population estimate) was 0.56. In addition, the “Ability to quench reactive aldehydes such as HNE and acrolein” value in data set [1] is “lacks the ability to quench reactive aldehydes”. The “Time remaining elevated above LOQ in plasma” value at CN1 enzyme (20 µM added to heparin plasma, 37 °C, LOQ 0.05 µM) is “up to 5 h”. Moreover, the half-life at 20 µM at CN1 enzyme (both sexes, 20 µM added to human heparin plasma, 37 °C, 6 subjects, read-out: Half-life in plasma) turned out to be 34.9 ± 14.6 min; at CN1 enzyme (in vitro, read-out: Half-life in plasma with the highest CN1 activity), 15 min. Also, the “Half-life in plasma with the lowest CN1 activity relative to highest” value at CN1 enzyme (in vitro) is “threefold higher half-life”. Moreover, the “Elimination rate constant relative to carnosine” value on CN1 enzyme (in vitro human heparin plasma) was 3.86%. Further, the “Elimination constant ke: factor lower for balenine compared to carnosine” value at CN1 enzyme (in vitro human heparin plasma, factor ×) is 25.9. For the same compound, on CN1 enzyme (in vitro human heparin plasma, factor ×, not significant), the “Elimination constant ke: factor difference between balenine and anserine” value was determined as 14.0. Also, the “Antioxidant and iron-chelating capacity” value in data set [2] is “higher antioxidant and iron-chelating capacity than carnosine and anserine”.
